Test results from patent US12660819B2, “Herbicidal derivatives” (SYNGENTA CROP PROTECTION AG, priority 2020, dated 2026).

How the values were obtained:
Assay type in all cases: in vivo
[1] = system: Abutilon theophrasti (ABUTH); experiment: Post-emergence Test (glasshouse, percentage damage to the plant); settings: 1000 g/ha unless otherwise stated, evaluated after 13 days; for ABUTH, percentage damage caused to the plant (five-point scale): post-emergence; for Post-emergence Test ABUTH, percentage damage to the plant (five-point scale): post-emergence spray
Method in brief: (§1)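 Spray treatment of sown glasshouse pots at 1000 g/ha (default rate), vehicle acetone/water 50:50 plus 0.5% Tween 20. Read-out: percentage damage after 13 days, converted to a score where 5 denotes 81-100% and 1 denotes 0-20%.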

[2] = system: Amaranthus retoflexus (AMARE); experiment: as above; settings: 1000 g/ha unless otherwise stated, evaluated after 13 days; for AMARE, percentage damage caused to the plant (five-point scale): post-emergence; for Post-emergence Test AMARE, percentage damage to the plant (five-point scale): post-emergence spray
Method in brief: as §1

[3] = system: Ipomoea hederacea (IPOHE); experiment: as above; settings: 1000 g/ha unless otherwise stated, evaluated after 13 days; for IPOHE, percentage damage caused to the plant (five-point scale): post-emergence; for Post-emergence Test IPOHE, percentage damage to the plant (five-point scale): post-emergence spray
Method in brief: (§2)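 Seeds are sown in standard soil under controlled glasshouse conditions. The pots are then sprayed at 1000 g/ha, unless otherwise stated, with compound in acetone/water (50:50) containing 0.5% Tween 20. After 13 days further growth, percentage plant damage is scored from 1 (0-20%) to 5 (81-100%).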

Setaria faberi (SETFA) [4] = experiment: as above; settings: 1000 g/ha unless otherwise stated, evaluated after 13 days; for SETFA, percentage damage caused to the plant (five-point scale): post-emergence; for Post-emergence Test SETFA, percentage damage to the plant (five-point scale): post-emergence spray
Method in brief: as §2

Zea mays (ZEAMX) [5] = experiment: as above; settings: 1000 g/ha unless otherwise stated, evaluated after 13 days; for ZEAMX, percentage damage caused to the plant (five-point scale): post-emergence; for Post-emergence Test ZEAMX, percentage damage to the plant (five-point scale): post-emergence spray
Method in brief: as §2

[6] = system: Amaranthus retoflexus (AMARE); experiment: Pre-emergence Test (glasshouse, percentage damage to the plant); settings: 1000 g/ha unless otherwise stated; for percentage damage to the plant, AMARE (five-point scale): Amaranthus retoflexus; for percentage damage to the plant, AMARE: five-point scale
Setaria faberi (SETFA) [7] = experiment: as above; settings: 1000 g/ha unless otherwise stated; for percentage damage to the plant, SETFA (five-point scale): Setaria faberi; for percentage damage to the plant, SETFA: five-point scale
[8] = system: Echinochloa crus-galli (ECHCG); experiment: as above; settings: 1000 g/ha unless otherwise stated; for percentage damage to the plant, ECHCG (five-point scale): Echinochloa crus-galli; for percentage damage to the plant, ECHCG: five-point scale
[9] = system: Ipomoea hederacea (IPOHE); experiment: as above; settings: 1000 g/ha unless otherwise stated; for percentage damage to the plant, IPOHE (five-point scale): Ipomoea hederacea; for percentage damage to the plant, IPOHE: five-point scale
[10] = system: Abutilon theophrasti (ABUTH); experiment: as above; settings: 1000 g/ha unless otherwise stated; for percentage damage to the plant, ABUTH (five-point scale): Abutilon theophrasti; for percentage damage to the plant, ABUTH: five-point scale
Zea mays (ZEAMX) [11] = experiment: as above; settings: 1000 g/ha unless otherwise stated; for percentage damage to the plant, ZEAMX (five-point scale): Zea mays; for percentage damage to the plant, ZEAMX: five-point scale
[12] = system: Echinochloa crus-galli (ECHCG); experiment: Post-emergence Test (glasshouse, percentage damage to the plant); settings: 1000 g/ha unless otherwise stated, evaluated after 13 days; for Post-emergence Test ECHCG, percentage damage to the plant (five-point scale): post-emergence spray; for ECHCG, percentage damage caused to the plant (five-point scale): post-emergence
Method in brief: as §1

SMILES	ABUTH, percentage damage caused to the plant (five-point scale) [1]	AMARE, percentage damage caused to the plant (five-point scale) [2]	IPOHE, percentage damage caused to the plant (five-point scale) [3]	SETFA, percentage damage caused to the plant (five-point scale) (Setaria faberi (SETFA) [4])	ZEAMX, percentage damage caused to the plant (five-point scale) (Zea mays (ZEAMX) [5])	percentage damage to the plant, AMARE (five-point scale) [6]	percentage damage to the plant, SETFA (five-point scale) (Setaria faberi (SETFA) [7])	percentage damage to the plant, ECHCG (five-point scale) [8]	percentage damage to the plant, IPOHE (five-point scale) [9]	percentage damage to the plant, ABUTH (five-point scale) [10]	percentage damage to the plant, ZEAMX (five-point scale) (Zea mays (ZEAMX) [11])	Post-emergence Test AMARE, percentage damage to the plant (five-point scale) [2]	Post-emergence Test IPOHE, percentage damage to the plant (five-point scale) [3]	Post-emergence Test SETFA, percentage damage to the plant (five-point scale) (Setaria faberi (SETFA) [4])	Post-emergence Test ZEAMX, percentage damage to the plant (five-point scale) (Zea mays (ZEAMX) [5])	percentage damage to the plant, AMARE [6]	percentage damage to the plant, SETFA (Setaria faberi (SETFA) [7])	percentage damage to the plant, ECHCG [8]	percentage damage to the plant, IPOHE [9]	percentage damage to the plant, ZEAMX (Zea mays (ZEAMX) [11])	also measured
CCn1c(-c2ccc(Cl)c(Cl)c2)c(C(=O)O)c(=O)c(-c2ccc(Cl)cc2)c1C(F)F [Compound 204, 5-(4-chlorophenyl)-2-(3,4-dichlorophenyl)-6-(difluoromethyl)-1-ethyl-4-oxo-pyridine-3-carboxylic acid]	5 (5=81-100%)	5 (5=81-100%)	2 (2=21-40%)	3 (3=41-60%)	1 (1=0-20%)	5 (5=81-100%)	0	0	0	2 (2=21-40%)	0	–	–	–	–	–	–	–	–	–	–
CCn1c(C)c(-c2ccc(Cl)c(F)c2)c(=O)c(C(=O)O)c1-c1ccc(Cl)cc1 [Compound 201, 5-(4-chloro-3-fluoro-phenyl)-2-(4-chlorophenyl)-1-ethyl-6-methyl-4-oxo-pyridine-3-carboxylic acid]	4 (4=61-80%)	2 (2=21-40%)	1 (1=0-20%)	3 (3=41-60%)	2 (2=21-40%)	1 (1=0-20%)	3 (3=41-60%)	3 (3=41-60%)	0	2 (2=21-40%)	0	–	–	–	–	–	–	–	–	–	–
CCn1c(CCOC)c(-c2ccc(Cl)cc2)c(=O)c(C(=O)O)c1-c1ccc(Cl)c(Cl)c1 [Compound 203, 5-(4-chlorophenyl)-2-(3,4-dichlorophenyl)-1-ethyl-6-(2-methoxyethyl)-4-oxo-pyridine-3-carboxylic acid]	0	0	0	0	1 (1=0-20%)	0	0	1 (1=0-20%)	0	–	0	–	–	–	–	–	–	–	–	–	–
CCn1c(C)c(-c2ccc(F)cc2F)c(=O)c(C(=O)O)c1-c1ccc(Cl)cc1 [Compound 192, 2-(4-chlorophenyl)-5-(2,4-difluorophenyl)-1-ethyl-6-methyl-4-oxo-pyridine-3-carboxylic acid]	–	–	–	–	–	–	–	–	–	–	–	2 (2=21-40%)	2 (2=21-40%)	4 (4=61-80%)	2 (2=21-40%)	1 (1=0-20%)	2 (2=21-40%)	2 (2=21-40%)	1 (1=0-20%)	0	Post-emergence Test ABUTH, percentage damage to the plant (five-point scale) [1]: 4 (4=61-80%); percentage damage to the plant, ABUTH [10]: 2 (2=21-40%)
CCn1c(C)c(-c2ccc(F)cc2OC)c(=O)c(C(=O)OC)c1-c1ccc(Cl)c(Cl)c1 [Compound 164, methyl 2-(3,4-dichlorophenyl)-1-ethyl-5-(4-fluoro-2-methoxy-phenyl)-6-methyl-4-oxo-pyridine-3-carboxylate]	–	–	–	–	–	–	–	–	–	–	–	1 (1=0-20%)	1 (1=0-20%)	1 (1=0-20%)	1 (1=0-20%)	0	0	0	0	0	Post-emergence Test ABUTH, percentage damage to the plant (five-point scale) [1]: 1 (1=0-20%); Post-emergence Test ECHCG, percentage damage to the plant (five-point scale) [12]: 0
CCn1c(C)c(-c2cccc(C(F)(F)F)n2)c(=O)c(C(=O)O)c1-c1ccc(Cl)c(Cl)c1 [Compound 217, 2-(3,4-dichlorophenyl)-1-ethyl-6-methyl-4-oxo-5-[6-(trifluoromethyl)-2-pyridyl]pyridine-3-carboxylic acid]	–	0	3 (3=41-60%)	2 (2=21-40%)	0	0	2 (2=21-40%)	1 (1=0-20%)	3 (3=41-60%)	3 (3=41-60%)	1 (1=0-20%)	–	–	–	–	–	–	–	–	–	ECHCG, percentage damage caused to the plant (five-point scale) [12]: 1 (1=0-20%)
CCn1c(CCOC)c(-c2ccc(Cl)cc2)c(=O)c(C(=O)OC)c1-c1ccc(Cl)c(Cl)c1 [Compound 202, methyl 5-(4-chlorophenyl)-2-(3,4-dichlorophenyl)-1-ethyl-6-(2-methoxyethyl)-4-oxo-pyridine-3-carboxylate]	0	0	1 (1=0-20%)	0	1 (1=0-20%)	0	0	0	0	0	0	–	–	–	–	–	–	–	–	–	–
CCn1c(C)c(-c2ccc(C#N)cc2)c(=O)c(C(=O)O)c1-c1ccc(Cl)cc1 [Compound 198, 2-(4-chlorophenyl)-5-(4-cyanophenyl)-1-ethyl-6-methyl-4-oxo-pyridine-3-carboxylic acid]	–	2 (2=21-40%)	1 (1=0-20%)	2 (2=21-40%)	1 (1=0-20%)	0	0	0	1 (1=0-20%)	0	0	–	–	–	–	–	–	–	–	–	ECHCG, percentage damage caused to the plant (five-point scale) [12]: 1 (1=0-20%)
CCn1c(C)c(-c2cc(C)c(F)c(C)c2)c(=O)c(C(=O)O)c1-c1ccc(Cl)cc1 [Compound 173, 2-(4-chlorophenyl)-1-ethyl-5-(4-fluoro-3,5-dimethyl-phenyl)-6-methyl-4-oxo-pyridine-3-carboxylic acid]	–	–	–	–	–	–	–	–	–	–	–	3 (3=41-60%)	3 (3=41-60%)	2 (2=21-40%)	2 (2=21-40%)	0	0	0	0	0	Post-emergence Test ECHCG, percentage damage to the plant (five-point scale) [12]: 1 (1=0-20%); percentage damage to the plant, ABUTH [10]: 0
CCn1c(C)c(-c2cccc(OC)c2F)c(=O)c(C(=O)O)c1-c1ccc(Cl)cc1 [Compound 179, 2-(4-chlorophenyl)-1-ethyl-5-(2-fluoro-3-methoxy-phenyl)-6-methyl-4-oxo-pyridine-3-carboxylic acid]	–	–	–	–	–	–	–	–	–	–	–	2 (2=21-40%)	3 (3=41-60%)	3 (3=41-60%)	1 (1=0-20%)	1 (1=0-20%)	1 (1=0-20%)	1 (1=0-20%)	3 (3=41-60%)	0	Post-emergence Test ECHCG, percentage damage to the plant (five-point scale) [12]: 2 (2=21-40%); percentage damage to the plant, ABUTH [10]: 3 (3=41-60%)
